In patent US6825348B2, “Antiviral compounds” (Academia Sinica, priority 2002, dated 2004):
Values after ≈ are worked out from the molar mass of the structure shown. Where two headings read alike, the source gives them in different places.

Assays:
[1] = target: T1, calf mucosal adenosine deaminase (ADA, EC 3.5.4.4) (Bos taurus, UniProt P56658); assay: Substrate activity and competitive inhibition of adenosine deaminase; type: biochemical; conditions: for Ki: inhibition of ADA with ara-A 3 as substrate
T1 sequence (P56658 1-363): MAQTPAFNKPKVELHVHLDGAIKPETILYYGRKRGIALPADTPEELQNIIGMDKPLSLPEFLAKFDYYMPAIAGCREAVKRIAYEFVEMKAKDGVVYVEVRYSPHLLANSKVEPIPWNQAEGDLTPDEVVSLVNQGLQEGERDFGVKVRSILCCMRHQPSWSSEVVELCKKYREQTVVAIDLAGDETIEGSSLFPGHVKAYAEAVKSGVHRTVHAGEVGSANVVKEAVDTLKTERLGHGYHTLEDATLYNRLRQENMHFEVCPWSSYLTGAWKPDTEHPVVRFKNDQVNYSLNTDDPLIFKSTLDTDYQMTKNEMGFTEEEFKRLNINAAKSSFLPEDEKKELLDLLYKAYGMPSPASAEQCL

PRPP synthetase = PRPP synthetase (UniProt P0A717); assay: PRPP synthetase reaction, conversion to diphosphates and inhibition of AMP phosphorylation; type: biochemical; conditions: inhibition of AMP phosphorylation, 37° C., 15 min
Experimental: Enzymatic Conversion of Acyclic Nucleoside Phosphonates and Nucleotide 5′-Monophosphate Analog to Their Antivirally Active Diphosphates (Triphosphate Equivalents). Substrate affinities of acyclic nucleoside phosphonates 4, 20, 21, and dinucleotide analog 24 for PRPP synthetase as well as their inhibitory effect against the enzyme were evaluated according to the established procedures. See, e.g., Balzarini et al. (1991) J. Biol. Chem. 266: 8686-8689 and references cited therein. The assays were then terminated after 4 h by the addition of MeOH. HPLC on an anion-exchange Partisphere column was used to analyze the formation of […] 21pp, PMEApp, 4pp, 20pp, and 24pp.

[2] = tested on: herpes simplex type 1 virus (HSV-1) (KOS); assay: Inhibition of HSV-1 cytopathogenicity in Vero cell culture; type: cell-based; conditions: read-out: IC50 HSV-1 (KOS)
[3] = tested on: thymidine kinase-deficient (TK−) varicella-zoster virus (YS/R); assay: microbe, parasite or virus in culture; type: cell-based; conditions: Human alphaherpesvirus 3, Vero, read-out: IC50 TK−VZV (YS/R)
[4] = tested on: human cytomegalovirus (AD-169); assay: Inhibition of HCMV cytopathogenicity in Vero cell culture; type: cell-based; conditions: Human betaherpesvirus 5, AD169; Vero cell culture; 50% inhibition of cytopathogenicity; for 1:1 mixtures IC50 refers to known antiviral drugs; read-out: IC50 HCMV (AD-169)
HIV-1 (IIIB) = assay: microbe, parasite or virus in culture; type: cell-based; conditions: Human immunodeficiency virus 1, IIIB; MT4 cells, average of duplicates; read-out: IC50 HIV-1 (IIIB)
HIV-2 (LAV-2) = assay: Inhibition of HIV-2 cytopathogenicity in MT4 cells; type: cell-based, human immunodeficiency virus; conditions: Human immunodeficiency virus 2; MT4 cells, average of duplicates; read-out: IC50 HIV-2 (LAV-2)
[5] = tested on: moloney murine sarcoma virus (MSV); assay: Inhibition of MSV cytopathogenicity in CEM cells (cell-protection assay); type: cell-based; conditions: Moloney murine sarcoma virus, CCRF-CEM; CEM cells, average of duplicates; read-out: IC50 MSV
HSV-1 (KOS) = assay: Anti-HSV-1 activity in vivo, HSV-1-induced mortality in NMRI mice; conditions: 6 days; for mean day of animal death / mean day of symptom initiation: terminated day 21; for responders at 100 mg/kg / responders at 150 mg/kg / responders at 250 mg/kg: Human alphaherpesvirus 1, ip, 504 h; for protection against HSV-induced mortality: 150 mg/kg dose level i.p.
MT4 cells = assay: Toxicity toward MT4 cells
CEM cells = assay: Toxicity toward CEM cells
HeLa cells [6] = assay: Toxicity, morphological changes in HeLa cells
Vero cells [7] = assay: Toxicity, morphological changes in Vero cells
[8] = Lipophilicity, 1-octanol/water partition coefficient
[9] = Solubility in water (phosphate buffer, UV absorbance); conditions: pH 6.8, aqueous buffer, thermodynamic from solid
[10] = tested on: thymidine kinase-positive (TK+) varicella-zoster virus (YS); assay: Inhibition of TK+ VZV cytopathogenicity in Vero cell culture; type: cell-based
HeLa cells [11] = conditions: human
Vero cells [12] = conditions: African green monkey
[13] = LD50 and toxicity in mice, intraperitoneal
[14] = tested on: Snake venom phosphodiesterase; assay: Activity of snake venom phosphodiesterase against nucleotide analogs; conditions: pH 9.2, 37° C., 8 h
MSV = conditions: for mean day of animal death / percentage of MSV-infected mice alive at day 21 postinfection / percentage of MSV-infected mice without tumors at day 21 postinfection: two injections; for mean day of tumor initiation: two injections within two days
[15] = Human alphaherpesvirus 1, Vero cell culture, 50% inhibition of virus-induced cytopathogenicity, mean of duplicates, for 1:1 (W/W) mixtures IC50 refers to known antiviral drugs
[16] = 100 mg/kg/day i.p., read-out: percentage of HSV-1-infected mice alive at day 21 postinfection
[17] = 100 mg/kg/day i.p., read-out: percentage of HSV-1-infected mice without symptoms at day 21 postinfection
[18] = 150 mg/kg/day i.p., read-out: percentage of HSV-1-infected mice alive at day 21 postinfection
[19] = 150 mg/kg/day i.p., read-out: percentage of HSV-1-infected mice without symptoms at day 21 postinfection
[20] = 250 mg/kg/day i.p., read-out: percentage of HSV-1-infected mice alive at day 21 postinfection
[21] = 250 mg/kg/day i.p., read-out: percentage of HSV-1-infected mice without symptoms at day 21 postinfection

Structure (SMILES) | ADA substrate / inhibitor property in words [1] | Ki [1] | IC50 [4] | IC50 (HIV-1 (IIIB)) | IC50 (HIV-2 (LAV-2)) | IC50 [5] | mean day of animal death (HSV-1 (KOS); 100 mg/kg/day i.p.) | mean day of symptom initiation (HSV-1 (KOS); 100 mg/kg/day i.p.) | mean day of animal death (HSV-1 (KOS); 150 mg/kg/day i.p.) | mean day of symptom initiation (HSV-1 (KOS); 150 mg/kg/day i.p.) | mean day of animal death (HSV-1 (KOS); 250 mg/kg/day i.p.) | mean day of symptom initiation (HSV-1 (KOS); 250 mg/kg/day i.p.) | responders at 100 mg/kg (HSV-1 (KOS); [16]) | responders at 100 mg/kg (HSV-1 (KOS); [17]) | responders at 150 mg/kg (HSV-1 (KOS); [18]) | responders at 150 mg/kg (HSV-1 (KOS); [19]) | responders at 250 mg/kg (HSV-1 (KOS); [20]) | responders at 250 mg/kg (HSV-1 (KOS); [21]) | MT4 cell, concentration reducing the number of viable uninfected cells by 50% (MT4 cells) | CEM cell, concentration reducing the number of viable uninfected cells by 50% (CEM cells) | also measured
Nc1ncnc2ncn(CCOCP(=O)(O)O)c12 [Compound 20, 7-[2-(Phosphonomethoxy)ethyl]adenine] | neither a good substrate nor an inhibitor | > 0.8 mM | 21 µg/mL (≈ 76.9 µM) | 7.8 µg/mL (≈ 28.6 µM) | 9.1 µg/mL (≈ 33.3 µM) | 27 µg/mL (≈ 98.8 µM) | 15.4 ± 1.3 days | 12.8 ± 1.1 days | 17.8 ± 1.5 days | 15.0 ± 0.9 days | 20.0 ± 1.7 days | 16.8 ± 2.4 days | 70% | 51% | 80% | 62% | 95% | 75% | >300 µg/mL | >300 µg/mL | Ki (PRPP synthetase): 16.7 mM; IC50 [2, 15]: 20 µg/mL (≈ 73.2 µM); IC50 [3]: 8 µg/mL (≈ 29.3 µM); HeLa cell, concentration causing microscopically visible change or disruption in about 50% of the cell sheet (HeLa cells [6]): 236 µg/mL; Vero cell, concentration causing microscopically visible change or disruption in about 50% of the cell sheet (Vero cells [7]): 246 µg/mL; logP at […] [8]: 0.95; solubility at 20 h [9]: 2890 µg/mL (≈ 10600 µM)
COC1=C(OC)/C(=C/COP(=O)(O)OC[C@H]2O[C@@H](n3cnc4c(N)ncnc43)[C@H](O)[C@@H]2OP(=O)(O)COCCn2cnc3ncnc(N)c32)OC1=O [Compound 25, 9-[[(Z)-4-(ethylidene)-2,3-dimethoxy-Δ^a,b-butenolide]-β-D-furanosyl]adenine-3′-[[1-(adenin-7-yl-ethoxy)methyl]phosphonate]-4,5′-phosphate] | neither a good substrate nor an inhibitor | – | 4.1 µg/mL (≈ 5.32 µM) | 4.9 µg/mL (≈ 6.36 µM) | 4.2 µg/mL (≈ 5.45 µM) | 13 µg/mL (≈ 16.9 µM) | >21 days | 19.6 ± 1.5 days | >21 days | >21 days | >21 days | >21 days | 100% | 94% | 100% | 100% | 100% | 100% | >300 µg/mL | >300 µg/mL | IC50 ([2]; Human alphaherpesvirus 1, Vero): 3 µg/mL (≈ 3.89 µM); IC50 TK+VZV (YS) [10]: 1.7 µg/mL (≈ 2.21 µM); IC50 [3]: 2 µg/mL (≈ 2.6 µM); protection against HSV-induced mortality (HSV-1 (KOS)): full protection; HeLa cell, concentration causing microscopically visible change or disruption in about 50% of the cell sheet (HeLa cells [11]): 326 µg/mL; Vero cell, concentration causing microscopically visible change or disruption in about 50% of the cell sheet (Vero cells [12]): 350 µg/mL; LD50 ([13]; NMRI, mouse, in vivo, ip): 675 mg/kg; level up to which no toxicity was shown ([13]; mice, intraperitoneal): 400 mg/kg; logP at […] ([8]; 1-octanol/water (0.10 M phosphate buffer)): 1.37; solubility at 20 h ([9]; phosphate buffer): 5160 µg/mL (≈ 6700 µM); stability to snake venom phosphodiesterase in words [14]: completely resistant
Nc1ncnc2c1ncn2CCOCP(=O)(O)O [PMEA 4, 9-[2-(phosphonomethoxy)ethyl]adenine, reference compound] | neither a good substrate nor an inhibitor | > 0.8 mM | 15 µg/mL (≈ 54.9 µM) | 4.1 µg/mL (≈ 15 µM) | 3.8 µg/mL (≈ 13.9 µM) | 2 µg/mL (≈ 7.32 µM) | 17.0 ± 1.1 days | 14.7 ± 1.4 days | >21 days | 18.5 ± 1.9 days | >21 days | >21 days | 77% | 56% | 100% | 80% | 100% | 100% | 274 µg/mL | 285 µg/mL | Ki (PRPP synthetase): 3.02 mM; IC50 [2, 15]: 11 µg/mL (≈ 40.3 µM); protection against HSV-induced mortality (HSV-1 (KOS)): full protection; mean day of animal death (MSV; 10 mg/kg/day i.p.): 13.0 ± 1.1 days; percentage of MSV-infected mice alive at day 21 postinfection (MSV; 10 mg/kg/day i.p.): (42%); percentage of MSV-infected mice without tumors at day 21 postinfection (MSV; 10 mg/kg/day i.p.): (19%); mean day of tumor initiation (MSV; 10 mg/kg/day i.p.): 9.6 ± 1.5 days; percentage of MSV-infected mice without tumors at day 21 postinfection (MSV; 10 mg/kg/day i.p., listed as 4): 19%; mean day of animal death (MSV; 20 mg/kg/day i.p.): 15.9 ± 1.7 days; percentage of MSV-infected mice alive at day 21 postinfection (MSV; 20 mg/kg/day i.p.): (76%); percentage of MSV-infected mice without tumors at day 21 postinfection (MSV; 20 mg/kg/day i.p.): (58%); mean day of tumor initiation (MSV; 20 mg/kg/day i.p.): 12.0 ± 1.3 days; mean day of animal death (MSV; 50 mg/kg/day i.p.): 17.8 ± 2.0 days; percentage of MSV-infected mice alive at day 21 postinfection (MSV; 50 mg/kg/day i.p.): (96%); percentage of MSV-infected mice without tumors at day 21 postinfection (MSV; 50 mg/kg/day i.p.): (84%); mean day of tumor initiation (MSV; 50 mg/kg/day i.p.): 12.5 ± 1.6 days; HeLa cell, concentration causing microscopically visible change or disruption in about 50% of the cell sheet (HeLa cells [6]): 146 µg/mL; Vero cell, concentration causing microscopically visible change or disruption in about 50% of the cell sheet (Vero cells [7]): 175 µg/mL; logP at […] [8]: 0.69; solubility at 20 h [9]: 1970 µg/mL (≈ 7210 µM)
